{
  "source": "BindingDB's records for patent US11116760",
  "about": "(Gilead Sciences, 2021)",
  "data": [
    {"biological_target": "T1, Integrin alpha-4/beta-7 (Homo sapiens, UniProt P13612+P26010)", "T1 sequence (P13612 whole entry)": "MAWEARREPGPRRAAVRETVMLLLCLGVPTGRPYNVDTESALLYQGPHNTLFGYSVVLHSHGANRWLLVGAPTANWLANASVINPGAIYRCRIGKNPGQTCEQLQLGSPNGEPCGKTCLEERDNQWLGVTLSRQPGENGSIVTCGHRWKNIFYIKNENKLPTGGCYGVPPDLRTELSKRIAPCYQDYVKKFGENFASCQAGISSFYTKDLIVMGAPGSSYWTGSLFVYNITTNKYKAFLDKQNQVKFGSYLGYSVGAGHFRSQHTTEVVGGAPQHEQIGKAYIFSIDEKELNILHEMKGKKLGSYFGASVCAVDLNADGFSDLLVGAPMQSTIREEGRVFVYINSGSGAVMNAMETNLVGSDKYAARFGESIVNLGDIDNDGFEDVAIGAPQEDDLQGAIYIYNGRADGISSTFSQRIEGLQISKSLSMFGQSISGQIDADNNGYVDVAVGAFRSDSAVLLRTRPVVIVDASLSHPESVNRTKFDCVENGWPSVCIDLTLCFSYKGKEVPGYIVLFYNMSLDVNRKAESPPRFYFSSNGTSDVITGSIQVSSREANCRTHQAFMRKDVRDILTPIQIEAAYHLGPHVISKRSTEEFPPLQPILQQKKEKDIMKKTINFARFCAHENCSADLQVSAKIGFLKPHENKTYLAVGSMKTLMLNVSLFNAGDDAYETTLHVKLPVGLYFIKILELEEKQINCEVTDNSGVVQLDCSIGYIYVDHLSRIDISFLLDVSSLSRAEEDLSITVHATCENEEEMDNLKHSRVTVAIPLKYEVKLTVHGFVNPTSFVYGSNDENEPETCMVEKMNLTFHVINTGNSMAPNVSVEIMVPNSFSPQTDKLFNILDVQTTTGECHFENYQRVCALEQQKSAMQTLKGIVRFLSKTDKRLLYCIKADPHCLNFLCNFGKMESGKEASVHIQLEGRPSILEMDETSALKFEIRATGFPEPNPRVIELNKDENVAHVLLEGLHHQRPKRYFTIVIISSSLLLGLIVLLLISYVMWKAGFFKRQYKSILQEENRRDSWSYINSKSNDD", "T1 sequence (P26010 whole entry)": "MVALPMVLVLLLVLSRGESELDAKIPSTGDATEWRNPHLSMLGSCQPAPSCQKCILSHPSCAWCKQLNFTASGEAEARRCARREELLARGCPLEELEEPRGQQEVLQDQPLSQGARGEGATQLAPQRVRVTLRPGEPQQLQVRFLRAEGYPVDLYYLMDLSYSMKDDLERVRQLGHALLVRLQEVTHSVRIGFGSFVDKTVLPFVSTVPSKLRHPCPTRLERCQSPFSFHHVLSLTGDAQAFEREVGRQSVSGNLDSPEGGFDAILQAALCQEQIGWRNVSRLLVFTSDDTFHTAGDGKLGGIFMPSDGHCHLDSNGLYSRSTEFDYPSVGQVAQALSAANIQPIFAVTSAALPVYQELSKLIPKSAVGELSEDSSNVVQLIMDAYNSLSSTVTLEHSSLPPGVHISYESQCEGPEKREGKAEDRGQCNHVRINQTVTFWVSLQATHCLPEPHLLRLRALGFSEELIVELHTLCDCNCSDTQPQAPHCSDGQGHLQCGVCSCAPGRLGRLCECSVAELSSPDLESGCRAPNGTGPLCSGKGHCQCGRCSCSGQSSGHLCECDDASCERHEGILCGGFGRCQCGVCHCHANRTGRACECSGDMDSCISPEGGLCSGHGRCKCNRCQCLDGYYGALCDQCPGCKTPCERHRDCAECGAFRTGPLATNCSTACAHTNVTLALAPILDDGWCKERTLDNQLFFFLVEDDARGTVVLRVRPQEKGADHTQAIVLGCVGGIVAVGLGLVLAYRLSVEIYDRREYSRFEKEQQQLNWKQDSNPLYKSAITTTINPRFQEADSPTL", "test": "alpha-4 beta-7 Integrin Cell Capture Assay", "description": "The potency of inhibitors in preventing α4β7 integrin interaction with MadCAM-1 was measured by monitoring the capture of α4β7 integrin expressing cells on a recombinant MadCAM-1 extracellular domain-coated plate. 384-Well plates (Corning 3702) were coated with MadCAM-1 extracellular domain by dispensing 20 μL of MAdCAM-1 at 1.0 μg/mL per well and incubating overnight at 4° C. The plates were then washed with PBS and blocked with 3% BSA for 2 hours before being washed again.", "units": {"EC50": "nM"}, "values": [
      {"smiles": "O=C(N[C@@H](Cc1ccc(-c2cc(F)c(F)cc2OCC2CC2)c2ncccc12)C(=O)O)c1c(F)cccc1F", "note": "[US11116760, Example 10]", "EC50": 21.2},
      {"smiles": "COc1ccn(C)c(=O)c1-c1ccc(C[C@H](NC(=O)c2c(F)cccc2F)C(=O)O)c2cccnc12", "note": "[US11116760, Example 13]", "EC50": 8.5},
      {"smiles": "O=C(N[C@@H](Cc1ccc(-c2ccc(F)c3cccnc23)c2ncccc12)C(=O)O)c1c(F)cccc1F", "note": "[US11116760, Example 15]", "EC50": 9.3},
      {"smiles": "N#Cc1ccc(-c2ccc(C[C@H](NC(=O)c3c(Cl)ccc(F)c3F)C(=O)O)c3cccnc23)c(Cl)c1", "note": "[US11116760, Example 17]", "EC50": 36.7},
      {"smiles": "COc1cc(F)c(C(=O)N[C@@H](Cc2ccc(-c3ccc(C#N)cc3Cl)c3ncccc23)C(=O)O)c(F)c1", "note": "[US11116760, Example 21]", "EC50": 96.6},
      {"smiles": "CC(O)c1cc(F)c(C(=O)N[C@@H](Cc2ccc(-c3ccc(C#N)cc3Cl)c3ncccc23)C(=O)O)c(F)c1", "note": "(stereo partly drawn) [US11116760, Example 33]", "EC50": 60.5},
      {"smiles": "CCOCc1cc(OC)c(-c2ccc(C[C@H](NC(=O)c3c(F)cc(N)cc3F)C(=O)O)c3cccnc23)c(OC)c1", "note": "[US11116760, Example 44]", "EC50": 10.9},
      {"smiles": "CCOCc1cc(OC)c(-c2ccc(C[C@H](NC(=O)c3c(F)cc(NS(=O)(=O)c4ccc(-c5ccnc(F)c5)cc4)cc3F)C(=O)O)c3cccnc23)c(OC)c1", "note": "[US11116760, Example 50]", "EC50": 0.4},
      {"smiles": "COc1c(-c2ccc(C[C@H](NC(=O)c3c(F)cccc3F)C(=O)O)c3cccnc23)c(=O)n(C)c2ccccc12", "note": "[US11116760, Example 67]", "EC50": 1.6},
      {"smiles": "Cc1ccc(C(F)(F)F)c(-c2ccc(C[C@H](NC(=O)c3c(Cl)cccc3Cl)C(=O)O)c3cccnc23)n1", "note": "[US11116760, Example 68]", "EC50": 14},
      {"smiles": "Nc1ccc(C(F)(F)F)c(-c2ccc(C[C@H](NC(=O)c3c(Cl)cccc3Cl)C(=O)O)c3cccnc23)n1", "note": "[US11116760, Example 72]", "EC50": 5.5},
      {"smiles": "C[C@H]1CN(c2cc(F)c(C(=O)N[C@@H](Cc3ccc(-c4ccc(C#N)cc4Cl)c4ncccc34)C(=O)O)c(F)c2)CCO1", "note": "[US11116760, Example 84]", "EC50": 11.7},
      {"smiles": "COc1ccnc(-c2ccc(C[C@H](NC(=O)c3c(F)cc(N4CCOC[C@@H]4C(F)(F)F)cc3F)C(=O)O)c3cccnc23)c1C(F)(F)F", "note": "[US11116760, Example 93]", "EC50": 0.4},
      {"smiles": "Cc1cnc(-c2ccc(C[C@H](NC(=O)c3c(F)cc(N4CCOC[C@@H]4C(F)(F)F)cc3F)C(=O)O)c3cccnc23)nc1C", "note": "[US11116760, Example 97]", "EC50": 3.2},
      {"smiles": "CC[C@@H](Nc1cc(F)c(C(=O)N[C@@H](Cc2ccc(-c3c(C(F)(F)F)c4cc(N(C)C)ccc4n(C)c3=O)c3ncccc23)C(=O)O)c(F)c1)C(F)(F)F", "note": "[US11116760, Example 125]", "EC50": 1},
      {"smiles": "CC[C@@H](Nc1cc(F)c(C(=O)N[C@@H](Cc2cc(F)c(-c3c(OC)cc(C)n(C)c3=O)c3ncccc23)C(=O)O)c(F)c1)C(F)(F)F", "note": "[US11116760, Example 138]", "EC50": 0.8},
      {"smiles": "CC1(Nc2cc(F)c(C(=O)N[C@@H](Cc3ccc(-c4ccc(C#N)cc4Cl)c4ncccc34)C(=O)O)c(F)c2)COC1", "note": "[US11116760, Example 152]", "EC50": 51.7},
      {"smiles": "Cc1cc(C(F)(F)F)c(-c2ccc(C[C@H](NC(=O)c3c(F)cc(N[C@H](C4CC4)C(F)(F)F)cc3F)C(=O)O)c3cccnc23)c(=O)n1C", "note": "[US11116760, Example 155]", "EC50": 0.3},
      {"smiles": "N#Cc1ccc(-c2ccc(C[C@H](NC(=O)c3c(F)cc(NC(=O)c4ccccc4)cc3F)C(=O)O)c3cccnc23)c(Cl)c1", "note": "[US11116760, Example 169]", "EC50": 88.6},
      {"smiles": "N#Cc1ccc(-c2ccc(C[C@H](NC(=O)c3c(F)cc(N[C@H]4CCC4(F)F)cc3F)C(=O)O)c3cccnc23)c(Cl)c1", "note": "[US11116760, Example 173]", "EC50": 81.5},
      {"smiles": "CC1(C)CN(c2cc(F)c(C(=O)N[C@@H](Cc3ccc(-c4ccc(C#N)cc4Cl)c4ncccc34)C(=O)O)c(F)c2)CCO1", "note": "[US11116760, Example 213]", "EC50": 28.6},
      {"smiles": "N#Cc1ccc(-c2ccc(C[C@H](NC(=O)c3c(F)cc(NC4COC4)cc3F)C(=O)O)c3cccnc23)c(Cl)c1", "note": "[US11116760, Example 214]", "EC50": 28.6},
      {"smiles": "N#Cc1ccc(-c2ccc(C[C@H](NC(=O)c3c(F)cc(N4CCOC(C(F)(F)F)C4)cc3F)C(=O)O)c3cccnc23)c(Cl)c1", "note": "(stereo partly drawn) [US11116760, Example 245]", "EC50": 33.6},
      {"smiles": "N#Cc1ccc(-c2ccc(C[C@H](NC(=O)c3c(F)cc(NC(C4CCOCC4)C(F)(F)F)cc3F)C(=O)O)c3cccnc23)c(Cl)c1", "note": "(stereo partly drawn) [US11116760, Example 247]", "EC50": 35.2},
      {"smiles": "Cc1c(C)c(C)n(C)c(=O)c1-c1ccc(C[C@H](NC(=O)c2c(F)cc(N3CCOC[C@H]3C(F)(F)F)cc2F)C(=O)O)c2cccnc12", "note": "[US11116760, Example 251]", "EC50": 3.1},
      {"smiles": "Cc1cc(C)nc(-c2ccc(C[C@H](NC(=O)c3c(F)cc(N4CCOC[C@@H]4C(F)(F)F)cc3F)C(=O)O)c3cccnc23)n1", "note": "[US11116760, Example 261]", "EC50": 4},
      {"smiles": "N#Cc1ccc(-c2ccc(C[C@H](NC(=O)c3c(F)cc(NC4CCOCC4)cc3F)C(=O)O)c3cccnc23)c(Cl)c1", "note": "[US11116760, Example 262]", "EC50": 30.6},
      {"smiles": "N#Cc1ccc(-c2ccc(C[C@H](NC(=O)c3c(F)cc(N4CCO[C@@H](C(F)(F)F)C4)cc3F)C(=O)O)c3cccnc23)c(Cl)c1", "note": "[US11116760, Example 265]", "EC50": 68.8},
      {"smiles": "N#Cc1ccc(-c2ccc(C[C@H](NC(=O)c3ccc4[nH]ccc4c3Cl)C(=O)O)c3cccnc23)c(Cl)c1", "note": "[US11116760, Example 266]", "EC50": 72.2},
      {"smiles": "CC(C)[C@H]1COCCN1c1cc(F)c(C(=O)N[C@@H](Cc2ccc(-c3ccc(C#N)cc3Cl)c3ncccc23)C(=O)O)c(F)c1", "note": "[US11116760, Example 292]", "EC50": 26.9},
      {"smiles": "CC[C@@H](Nc1cc(F)c(C(=O)N[C@@H](Cc2ccc(-c3nccc(C)n3)c3ncccc23)C(=O)O)c(F)c1)C(F)(F)F", "note": "[US11116760, Example 294]", "EC50": 7.4},
      {"smiles": "CC[C@@H](Nc1cc(F)c(C(=O)N[C@@H](Cc2ccc(-c3ncc(C)c(C)n3)c3ncccc23)C(=O)O)c(F)c1)C(F)(F)F", "note": "[US11116760, Example 309]", "EC50": 11.9},
      {"smiles": "O=C(N[C@@H](Cc1ccc(-c2nccc(C(F)(F)F)c2Cl)c2ncccc12)C(=O)O)c1c(Cl)cccc1Cl", "note": "[US11116760, Example 314]", "EC50": 13.4},
      {"smiles": "C[C@@H]1CN(c2cc(F)c(C(=O)N[C@@H](Cc3ccc(-c4ccc(C#N)cc4Cl)c4ncccc34)C(=O)O)c(F)c2)CCO1", "note": "[US11116760, Example 328]", "EC50": 19.4},
      {"smiles": "O=C(N[C@@H](Cc1ccc(-c2nccc(C#CC3CC3)c2C(F)(F)F)c2ncccc12)C(=O)O)c1c(Cl)cccc1Cl", "note": "[US11116760, Example 330]", "EC50": 21},
      {"smiles": "N#Cc1ccc(-c2ccc(C[C@H](NC(=O)c3c(F)cc(N[C@H](C4CCOCC4)C(F)(F)F)cc3F)C(=O)O)c3cccnc23)c(Cl)c1", "note": "[US11116760, Example 338]", "EC50": 26.5},
      {"smiles": "Cc1cc2c(=O)n(-c3ccc(C[C@H](NC(=O)c4c(F)cc(N5CCOC[C@@H]5C(F)(F)F)cc4F)C(=O)O)c4cccnc34)c(=O)n(C)c2cn1", "note": "[US11116760, Example 424]", "EC50": 0.15},
      {"smiles": "Cc1nc(-c2ccc(C[C@H](NC(=O)c3c(F)cc(N4CCOC[C@@H]4C(F)(F)F)cc3Cl)C(=O)O)c3cccnc23)c(=O)n(C)c1C", "note": "[US11116760, Example 454]", "EC50": 0.14}
    ]}
  ]
}
